Residue numbers refer to the chain shown, from its start. Read-outs that look alike come from different tables or passages of the source.
How the values were obtained:
HL-60(TB) cells [1] = experiment: Annexin V-FITC/PI apoptosis assay; assay type: cell-based, human; conditions: GI50 (158 nM), 24 h
Procedure: Extrinsic as well as intrinsic apoptosis in leukaemia, HL-60(TB) cancer cells, induced by compound 6c was evaluated by Annexin V and PI staining. […] Compound 6c induced an early apoptosis (2.88%), in HL-60(TB) at 24 h compared to control (0.51%) and enhanced late apoptotic induction (15.75%) by more than 85-fold over the untreated cells (0.18%). Moreover, compound 6c induced necrosis by 7 times more than control as declared in Figures 8 and 9.
Annexin V-fluorescein isothiocyanate (Annexin V-FITC) has high affinity to phosphatidylserine (PS). This affinity enables detection of PS by Annexin V-FITC staining as previously described.

HL-60(TB) cells [2] = experiment: Cell cycle analysis (PI, flow cytometry); assay type: cell-based, human; conditions: 24 h
Procedure: Targeting cancer cell cycle has been emerged as a viable approach for cancer treatment. To recognise the role of compound 6c in GI of cancer cells, and induction of apoptosis in different phases, DNA flow cytometric analysis was performed to measure the effect of compound 6c on cell cycle progression for leukaemia, HL-60(TB) cancer cells.
Following that, two runs of wash with ice-cold phosphate-buffered saline (PBS) were performed. And then, the treated HL-60(TB) cells were centrifuged and frozen in ethanol (70%, ice-cold) then washed in PBS, resuspended with RNase ([…]), stained with PI ([…]), finally analysed by flow cytometry using a FACS Calibur (Becton Dickinson, BD; Franklin Lakes, NJ). To calculate the cell cycle distributions, CellQuest software version 5.1 (Becton Dickinson) was used.

MALME-3M = experiment: NCI 60 antitumor screening (single dose / five doses); assay type: cell-based; conditions: Homo sapiens
K-562 = experiment: as above; assay type: cell-based; conditions: Homo sapiens, K562
HT29 = experiment: as above; assay type: cell-based, human; conditions: for GI50: read-out: GI50
in vitro = conditions: human
Procedure: Data was measured in triplicate, and IC50 values are given as mean values ± SD.

ACHN = experiment: NCI 60 antitumor screening (single dose / five doses); assay type: cell-based; conditions: Homo sapiens
active Caspase 9 = experiment: Western blot analysis for apoptotic markers; assay type: cell-based, human; conditions: HL-60(TB) cells
Procedure: (§1) Cysteine-containing aspartic acid-specific proteases, caspases provide essential links in cell controlling the apoptotic machinery[45]^,[46]. For this reason, this study was further extended to investigate the mechanism of compound 6c to provoke apoptosis in HL-60(TB) leukaemia cell line.
(§2) Compound 6c was incubated with the seeded cells following the procedure described by W. Neal Burnette[60].

active Caspase 3 = experiment: Western blot analysis for apoptotic markers; assay type: cell-based, human; conditions: HL-60(TB) cells
Procedure: as §1, §2

wild type IDH2 = molecular target: T1, wild type IDH2 (Homo sapiens, UniProt P48735); experiment: IDH2 enzyme inhibition assay (wild type IDH Assay Kit)
T1 sequence (P48735 40-452): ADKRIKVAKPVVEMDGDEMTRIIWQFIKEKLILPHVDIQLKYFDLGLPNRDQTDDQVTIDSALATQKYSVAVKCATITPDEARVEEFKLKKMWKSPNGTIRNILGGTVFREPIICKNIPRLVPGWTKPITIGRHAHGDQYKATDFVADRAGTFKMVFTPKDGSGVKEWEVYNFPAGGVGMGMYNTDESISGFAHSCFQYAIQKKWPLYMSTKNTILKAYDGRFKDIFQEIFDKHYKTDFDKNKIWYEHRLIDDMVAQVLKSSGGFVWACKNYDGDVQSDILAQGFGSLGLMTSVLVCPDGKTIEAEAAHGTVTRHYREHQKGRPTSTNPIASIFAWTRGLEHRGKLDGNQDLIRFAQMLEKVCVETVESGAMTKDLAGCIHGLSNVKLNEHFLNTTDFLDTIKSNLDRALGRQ

IDH2^R140Q = molecular target: T2, IDH2^R140Q (Homo sapiens, UniProt P48735, R140Q); experiment: biochemical
T2 sequence (P48735 40-452 R140Q): T1 sequence (P48735 40-452) with R101Q

UACC-257 = experiment: NCI 60 antitumor screening (single dose / five doses); assay type: cell-based; conditions: Homo sapiens; UACC-257 (melanoma), single dose 10 μM; read-out: Growth inhibition percentage (GI %)
SNB-75 = experiment: as above; assay type: cell-based; conditions: Homo sapiens

Brc1cccc(/C=N/Nc2nc(N/N=C/c3cccc(Br)c3)nc(N3CCOCC3)n2)c1 [compound 6c, 2,4-Bis[(E)-2-[(3-bromophenyl)methylidene]hydrazin-1-yl]-6-(morpholin-4-yl)-1,3,5-triazine]
early apoptosis (HL-60(TB) cells [1]): 2.88%
late apoptotic induction (HL-60(TB) cells [1]): 15.75%
late apoptotic induction over the untreated cells (HL-60(TB) cells [1]): more than 85 fold
necrosis induction relative to control (HL-60(TB) cells [1]): 7 times
increase of apoptotic cells at the pre-G1 phase compared to DMSO (HL-60(TB) cells [2]; 158 nM): 14 fold
Cell cycle distribution %G0–G1 (HL-60(TB) cells [2]; GI50 concentration (158 nM)): 54.06%
Cell cycle distribution %G2/M (HL-60(TB) cells [2]; GI50 concentration (158 nM)): 4.76%
Cell cycle distribution %Pre-G1 (HL-60(TB) cells [2]; GI50 concentration (158 nM)): 28.02%
Cell cycle distribution %S (HL-60(TB) cells [2]; GI50 concentration (158 nM)): 41.18%
inhibition at 10 µM (MALME-3M; MALME-3M (melanoma), single dose 10 μM, read-out: Growth inhibition percentage (GI %)): 154%
GI50 (MALME-3M; MALME-3M, five doses (0.01–100 μM), read-out: GI50): 1880 nM
inhibition at 10 µM (K-562; K-562 (leukaemia), single dose 10 μM, read-out: Growth inhibition percentage (GI %)): 85.5%
GI50 (K-562; K-562, five doses (0.01–100 μM), read-out: GI50): 330 nM
GI50 (HT29; HT29, five doses (0.01–100 μM)): 610 nM
GI50 (HT29; Homo sapiens, HT-29, HT29, five doses (0.01–100 μM)): 600 nM
inhibition at 10 µM (HT29; Homo sapiens, HT-29, HT29 (colon cancer), single dose 10 μM, read-out: Growth inhibition percentage (GI %)): 93.4%
IC50 (in vitro): 53700 ± 2940 nM
inhibition at 10 µM (ACHN; ACHN (renal cancer), single dose 10 μM, read-out: Growth inhibition percentage (GI %)): 73.7%
GI50 (ACHN; ACHN, five doses (0.01–100 μM), read-out: GI50): 2210 nM
expression of active caspase 9 in comparison to the control (active Caspase 9): ~4 fold
expression of active caspase 3 in comparison to the control (active Caspase 3): about 3 fold
IC50 (wild type IDH2): 2930 ± 110 nM
IC50 (IDH2^R140Q): 102 ± 4.97 nM
inhibition at 10 µM (UACC-257): 64.1%
inhibition at 10 µM (SNB-75; SNB-75 (CNS cancer), single dose 10 μM, read-out: Growth inhibition percentage (GI %)): -7.5%
GI50 (SNB-75; SNB-75, five doses (0.01–100 μM), read-out: GI50): 4540 nM
